Laboratory results as given in patent publication US20160367542A1, “NICOTINAMIDE DERIVATE IN THE TREATMENT OF ACUTE CORONARY SYNDROME” (GlaxoSmithKline LLC, priority 2012, published 2016).
≈ marks a conversion by molar mass, not a printed value.

Assays:
[1] = test system: in-vivo macrophage activity in the carotid arteries and aorta of subjects with established atherosclerosis; test: In-vivo macrophage activity study, FDG-PET/CT imaging; set-up: species or system human; conditions: 84 days
Excerpt: Macrophage activity and presence are critical features to the vulnerability of plaque in the vasculature. The pivotal nature of p38 MAPK in signaling stress, and its presence in macrophages can be monitored by labeling glucose (fluorodeoxyglucose), an otherwise key nutrient for macrophage activity, and observing its uptake in macrophages using […]. […] The primary objective was to measure in-vivo macrophage activity, by fluorodeoxyglucose (FDG) positron emission tomography (PET)/computed tomography (CT) imaging, in carotid arteries and aorta following a 12-week treatment with losmapimod (7.5 mg once daily [QD] and 7.5 mg twice daily [BID]), in the setting of chronic statin therapy, as compared to placebo. Secondary objectives included safety and tolerability of 12 weeks of dosing with losmapimod (7.5 mg QD or 7.5 mg BID). Inflammatory biomarkers and the effect of losmapimod 7.5 mg QD vs 7.5 mg BID on in-vivo macrophage activity, as assessed by FDG-PET/CT imaging. Ninety-nine patients with vascular inflammation on statins were randomised to losmapimod 7.5 mg once daily (QD), twice daily (BID) or placebo for 84 days. Vascular inflammation was assessed by PET-CT imaging of the carotid arteries and aorta using ^18fluorodeoxyglucose (FDG); the artery with the highest average maximum tissue-to-background ratio (TBR) at baseline (TBR>1.6). […]

[2] = test system: hypercholerolesteric patients; conditions: Circulation. 2011;123:515-523; cited from earlier work
[3] = test system: patients with acute coronary syndrome (non-ST elevation); test: Recurrent infarction, infarct size and cardiac function in subjects with myocardial infarction (Example 4 study); type: in vivo, human
Method: (§1) In a randomised, double-blind, placebo controlled study, patients (n=approximately 500) who were admitted to a hospital with the diagnosis of acute coronary syndrome (specifically with non-ST elevation EKG findings upon entry) were provided an oral dose of losmapimod (7.5 mg or 15 mg and thereafter followed by 7.5 mg every 12 hours) or placebo for a period of 3 months.

physchem = type: physicochemical
Excerpt: There is therefore a need for a liquid formulation of said compound that is suitable for this mode of administration which solves this technical problem.

[4] = test system: high sensitivity C-reactive protein; test: Inflammatory biomarkers in the FDG-PET/CT study; type: in vivo, human; conditions: 7.5 mg BID versus placebo; 95% CI −46, −5; p=0.023
Method: The primary objective was to measure in-vivo macrophage activity, by fluorodeoxyglucose (FDG) positron emission tomography (PET)/computed tomography (CT) imaging, in carotid arteries and aorta following a 12-week treatment with losmapimod (7.5 mg once daily [QD] and 7.5 mg twice daily [BID]), in the setting of chronic statin therapy, as compared to placebo. Secondary objectives included safety and tolerability of 12 weeks of dosing with losmapimod (7.5 mg QD or 7.5 mg BID). Inflammatory biomarkers and the effect of losmapimod 7.5 mg QD vs 7.5 mg BID on in-vivo macrophage activity, as assessed by FDG-PET/CT imaging. Ninety-nine patients with vascular inflammation on statins were randomised to losmapimod 7.5 mg once daily (QD), twice daily (BID) or placebo for 84 days. Vascular inflammation was assessed by PET-CT imaging of the carotid arteries and aorta using ^18fluorodeoxyglucose (FDG); the artery with the highest average maximum tissue-to-background ratio (TBR) at baseline (TBR>1.6). 92% of the subjects were white, 86% male, the mean age was 63.8 years (SD 6.13). 72% were current or ex-smokers. […] All subjects were on a stable dose of statin for at least 3 months prior to the first dose and continued on this dose of statin throughout the study.

CRP and IL6 levels = test: Inflammatory markers in subjects with myocardial infarction (Example 4 study); type: in vivo, human; conditions: oral 7.5 mg or 15 mg then 7.5 mg every 12 hours; average 4.5 day initial hospital stay, setting of stent placement
Method: as §1

solubility (physchem): ~5 µg/mL (≈ 13 µM)
Compound: Cc1c(F)cc(C(=O)NC2CC2)cc1-c1ccc(C(=O)NCC(C)(C)C)cn1 [losmapimod, 6-(5-cyclopropylcarbamoyl-3-fluoro-2-methyl-phenyl)-N-(2,2-dimethylpropyl)-nicotinamide]
proportion of active slices (TBR≧1.6), change from baseline ([1]; 7.5 mg BID, placebo −6.1%, p=0.002, exploratory analysis): −9.8%
change from baseline to day 84 in average maximum TBR (primary end point) ([1]; losmapimod versus placebo, patients on statins): not significantly different
nitric oxide mediated vasodilatation [2]: improves
size of the infarct by magnetic resonance image, lower versus placebo ([3]; MRI 4-5 days after the index infarct, smaller cohort n=approximately 90): > 20%
BNP levels (surrogate for cardiac function), reduction ([3]; after 12 weeks of treatment): > 20%
size of the index infarct by release of cardiac muscle enzymes ([3]; enzymes measured every 8 hours, treated versus placebo group): unchanged
three month MR imaging of cardiac function and dimensions ([3]; three months of treatment): improved function and smaller overall cardiac dimensions
number of recurrent myocardial infarctions (or episodes of ACS), lower with treatment compared to placebo ([3]; within the first few months beyond the index infarct, not statistically significant): over 15%
high sensitivity C-reactive protein, reduction versus placebo [4]: −28%
CRP level, lower with treatment compared to placebo (CRP and IL6 levels): > 50%
IL6 level, lower with treatment compared to placebo (CRP and IL6 levels): > 50%
